Results published in patent publication US10004701B2, “Methods and compositions for treating infection” (UNIVERSITY OF ROCHESTER, priority 2012, dated 2018).
Structures can show the parent of a compound that is named as a salt. Where two headings read alike, the source gives them in different places.

Key:
Assay in all cases: AK assay 384-well format, Prestwick library screening
K. pneumoniae = type: cell-based, Klebsiella pneumoniae; details: for fold induction at 50 µM: Klebsiella pneumoniae, 3 h
P. aeruginosa = type: cell-based, Pseudomonas aeruginosa; details: for fold induction at 50 µM: Pseudomonas aeruginosa, 3 h
[1] = tested on: A. baumannii strain 98-37-09; type: cell-based, Acinetobacter baumannii; details: for fold induction at 50 µM: Acinetobacter baumannii, 983709, 3 h
E. coli = type: cell-based, Escherichia coli; details: for fold induction at 50 µM: Escherichia coli, 3 h
E. cloacae = type: cell-based, Enterobacter cloacae; details: for fold induction at 50 µM: Enterobacter cloacae, 3 h
E. faecium = type: cell-based, Enterococcus faecium; details: for fold induction at 50 µM: Enterococcus faecium, 3 h
[2] = tested on: S. aureus strain USA300-0114; type: cell-based, Staphylococcus aureus; details: for fold induction at 50 µM: Staphylococcus aureus, USA300, 3 h
[3] = 50 μM final drug concentration, 384-well format, cutoff for positive-scoring molecules 3-fold increase, read-out: AK-based Prestwick Library Screening Results, K. pneumoniae (increase in extracellular AK activity)
[4] = 50 μM final drug concentration, 384-well format, cutoff for positive-scoring molecules 3-fold increase, read-out: AK-based Prestwick Library Screening Results, P. aeruginosa (increase in extracellular AK activity)
[5] = 50 μM final drug concentration, 384-well format, cutoff for positive-scoring molecules 3-fold increase, read-out: AK-based Prestwick Library Screening Results, A. baumannii (increase in extracellular AK activity)
[6] = 50 μM final drug concentration, 384-well format, cutoff for positive-scoring molecules 3-fold increase, read-out: AK-based Prestwick Library Screening Results, E. coli (increase in extracellular AK activity)
[7] = 50 μM final drug concentration, 384-well format, cutoff for positive-scoring molecules 3-fold increase, read-out: AK-based Prestwick Library Screening Results, E. cloacae (increase in extracellular AK activity)
[8] = 50 μM final drug concentration, 384-well format, cutoff for positive-scoring molecules 3-fold increase, read-out: AK-based Prestwick Library Screening Results, E. faecium (increase in extracellular AK activity)
[9] = 50 μM final drug concentration, 384-well format, cutoff for positive-scoring molecules 3-fold increase, read-out: AK-based Prestwick Library Screening Results, S. aureus (increase in extracellular AK activity)
[10] = 50 μM final drug concentration, planktonic, cutoff for positive 3-fold increase
[11] = 50 μM final drug concentration, 384-well format, […]

`CN1CCCC(CC2c3ccccc3Sc3ccccc32)C1` (stereo not drawn) [Metixene hydrochloride] gave a fold induction at 50 µM (K. pneumoniae; planktonic K. pneumoniae, 50 μM final drug concentration, cutoff for positive-scoring molecules 3-fold increase, read-out: AK-based Prestwick Library Screening Results, K. pneumoniae (increase in extracellular AK activity)) of 0.8, a fold induction at 50 µM (P. aeruginosa; planktonic P. aeruginosa, 50 μM final drug concentration, cutoff for positive-scoring molecules 3-fold increase, read-out: AK-based Prestwick Library Screening Results, P. aeruginosa (increase in extracellular AK activity)) of 0.8 and a fold induction at 50 µM ([1]; planktonic A. baumannii, 50 μM final drug concentration, cutoff for positive-scoring molecules 3-fold increase, read-out: AK-based Prestwick Library Screening Results, A. baumannii (increase in extracellular AK activity)) of 1. It also gave a fold induction at 50 µM (E. coli; planktonic E. coli, 50 μM final drug concentration, cutoff for positive-scoring molecules 3-fold increase, read-out: AK-based Prestwick Library Screening Results, E. coli (increase in extracellular AK activity)) of 0.9, a fold induction at 50 µM (E. cloacae; planktonic E. cloacae, 50 μM final drug concentration, cutoff for positive-scoring molecules 3-fold increase, read-out: AK-based Prestwick Library Screening Results, E. cloacae (increase in extracellular AK activity)) of 0.8 and a fold induction at 50 µM (E. faecium; planktonic E. faecium, 50 μM final drug concentration, cutoff for positive-scoring molecules 3-fold increase, read-out: AK-based Prestwick Library Screening Results, E. faecium (increase in extracellular AK activity)) of 1. The fold induction at 50 µM ([2]; planktonic S. aureus, 50 μM final drug concentration, cutoff for positive-scoring molecules 3-fold increase, read-out: AK-based Prestwick Library Screening Results, S. aureus (increase in extracellular AK activity)) was 0.7.

With `NC(=O)NC1NC(=O)NC1=O` (stereo not drawn) [Allantoin] the fold induction at 50 µM (K. pneumoniae; [3]) was 0.4, the fold induction at 50 µM (P. aeruginosa; [4]) was 0.3 and the fold induction at 50 µM [1, 5] was 0.4. For the same compound, the fold induction at 50 µM (E. coli; [6]) was 0.4, the fold induction at 50 µM (E. cloacae; [7]) was 0.3 and the fold induction at 50 µM (E. faecium; [8]) was 0.7. The fold induction at 50 µM [2, 9] was 1.4.

Work on `CC1=C(/C=C/C(C)=C/C=C/C(C)=C\C(=O)O)C(C)(C)CCC1` [Isotretinoin] yielded a fold induction at 50 µM (K. pneumoniae; [3]) of 0.6, a fold induction at 50 µM (P. aeruginosa; [4]) of 0.8 and a fold induction at 50 µM [1, 5] of 0.7. The fold induction at 50 µM (E. coli; [6]) was 0.7, the fold induction at 50 µM (E. cloacae; [7]) was 0.9 and the fold induction at 50 µM (E. faecium; [8]) was 1. The fold induction at 50 µM [2, 9] was 0.6.

`COc1ccc2c3c([nH]c2c1)C(C)=NCC3` [Harmaline hydrochloride dihydrate] was tested, and the fold induction at 50 µM (K. pneumoniae; 50 μM final drug concentration, planktonic, […], read-out: AK-based Prestwick Library Screening Results, K. pneumoniae (fold increase in extracellular AK activity)) was 0.9, the fold induction at 50 µM (P. aeruginosa; 50 μM final drug concentration, planktonic, […], read-out: AK-based Prestwick Library Screening Results, P. aeruginosa (fold increase in extracellular AK activity)) was 1 and the fold induction at 50 µM ([1]; 50 μM final drug concentration, planktonic, […], read-out: AK-based Prestwick Library Screening Results, A. baumannii (fold increase in extracellular AK activity)) was 1. It also gave a fold induction at 50 µM (E. coli; 50 μM final drug concentration, planktonic, […], read-out: AK-based Prestwick Library Screening Results, E. coli (fold increase in extracellular AK activity)) of 1.1, a fold induction at 50 µM (E. cloacae; 50 μM final drug concentration, planktonic, […], read-out: AK-based Prestwick Library Screening Results, E. cloacae (fold increase in extracellular AK activity)) of 1.3 and a fold induction at 50 µM (E. faecium; 50 μM final drug concentration, planktonic, […], read-out: AK-based Prestwick Library Screening Results, E. faecium (fold increase in extracellular AK activity)) of 1. For the same compound, the fold induction at 50 µM ([2]; 50 μM final drug concentration, planktonic, […], read-out: AK-based Prestwick Library Screening Results, S. aureus (fold increase in extracellular AK activity)) was 1.4.

Compound `NCCCCCC(=O)O` [Aminocaproic acid] has a fold induction at 50 µM (K. pneumoniae; read-out: AK-based Prestwick Library Screening Results, K. pneumoniae (fold increase in extracellular AK activity)) of 1.2, a fold induction at 50 µM (P. aeruginosa; read-out: AK-based Prestwick Library Screening Results, P. aeruginosa (fold increase in extracellular AK activity)) of 1.1 and a fold induction at 50 µM ([1]; read-out: AK-based Prestwick Library Screening Results, A. baumannii (fold increase in extracellular AK activity)) of 1.3. The fold induction at 50 µM (E. coli; read-out: AK-based Prestwick Library Screening Results, E. coli (fold increase in extracellular AK activity)) was 1.2, the fold induction at 50 µM (E. cloacae; read-out: AK-based Prestwick Library Screening Results, E. cloacae (fold increase in extracellular AK activity)) was 1.6 and the fold induction at 50 µM (E. faecium; read-out: AK-based Prestwick Library Screening Results, E. faecium (fold increase in extracellular AK activity)) was 1.1. It also gave a fold induction at 50 µM ([2]; read-out: AK-based Prestwick Library Screening Results, S. aureus (fold increase in extracellular AK activity)) of 1.2.

With `Cn1cnc2c1c(=O)[nH]c(=O)n2C` [Theobromine] the fold induction at 50 µM (K. pneumoniae; 50 μM final drug concentration, cutoff for positive-scoring molecules 3-fold increase, read-out: AK-based Prestwick Library Screening Results, K. pneumoniae (fold increase in extracellular AK activity)) was 1.2, the fold induction at 50 µM (P. aeruginosa; 50 μM final drug concentration, cutoff for positive-scoring molecules 3-fold increase, read-out: AK-based Prestwick Library Screening Results, P. aeruginosa (fold increase in extracellular AK activity)) was 1.2 and the fold induction at 50 µM ([1]; 50 μM final drug concentration, cutoff for positive-scoring molecules 3-fold increase, read-out: AK-based Prestwick Library Screening Results, A. baumannii (fold increase in extracellular AK activity)) was 1.1. For the same compound, the fold induction at 50 µM (E. coli; 50 μM final drug concentration, cutoff for positive-scoring molecules 3-fold increase, read-out: AK-based Prestwick Library Screening Results, E. coli (fold increase in extracellular AK activity)) was 1.2, the fold induction at 50 µM (E. cloacae; 50 μM final drug concentration, cutoff for positive-scoring molecules 3-fold increase, read-out: AK-based Prestwick Library Screening Results, E. cloacae (fold increase in extracellular AK activity)) was 1.4 and the fold induction at 50 µM (E. faecium; 50 μM final drug concentration, cutoff for positive-scoring molecules 3-fold increase, read-out: AK-based Prestwick Library Screening Results, E. faecium (fold increase in extracellular AK activity)) was 1.1. For the same compound, the fold induction at 50 µM ([2]; 50 μM final drug concentration, cutoff for positive-scoring molecules 3-fold increase, read-out: AK-based Prestwick Library Screening Results, S. aureus (fold increase in extracellular AK activity)) was 1.3.

Compound `O=C(O)CCNC(=O)c1ccc(/N=N/c2ccc(O)c(C(=O)O)c2)cc1` [Balsalazide Sodium] has a fold induction at 50 µM (K. pneumoniae; 50 μM final drug concentration, planktonic, cutoff for positive-scoring molecules 3-fold increase, read-out: AK-based Prestwick Library Screening Results, K. pneumoniae (fold increase in extracellular AK activity)) of 0.7, a fold induction at 50 µM (P. aeruginosa; 50 μM final drug concentration, planktonic, cutoff for positive-scoring molecules 3-fold increase, read-out: AK-based Prestwick Library Screening Results, P. aeruginosa (fold increase in extracellular AK activity)) of 0.5 and a fold induction at 50 µM ([1]; 50 μM final drug concentration, planktonic, cutoff for positive-scoring molecules 3-fold increase, read-out: AK-based Prestwick Library Screening Results, A. baumannii (fold increase in extracellular AK activity)) of 0.5. The fold induction at 50 µM (E. coli; 50 μM final drug concentration, planktonic, cutoff for positive-scoring molecules 3-fold increase, read-out: AK-based Prestwick Library Screening Results, E. coli (fold increase in extracellular AK activity)) was 0.5, the fold induction at 50 µM (E. cloacae; 50 μM final drug concentration, planktonic, cutoff for positive-scoring molecules 3-fold increase, read-out: AK-based Prestwick Library Screening Results, E. cloacae (fold increase in extracellular AK activity)) was 0.4 and the fold induction at 50 µM (E. faecium; 50 μM final drug concentration, planktonic, cutoff for positive-scoring molecules 3-fold increase, read-out: AK-based Prestwick Library Screening Results, E. faecium (fold increase in extracellular AK activity)) was 0.9. For the same compound, the fold induction at 50 µM ([2]; 50 μM final drug concentration, planktonic, cutoff for positive-scoring molecules 3-fold increase, read-out: AK-based Prestwick Library Screening Results, S. aureus (fold increase in extracellular AK activity)) was 0.4.

`CN1CCc2c(c3ccccc3n2Cc2ccccc2)C1.O=S(=O)(O)c1cccc2c(S(=O)(=O)O)cccc12` [Mebhydroline 1,5-naphtalenedisulfonate] was tested, and the “AK-based Prestwick Library Screening Results, K. pneumoniae (fold increase in extracellular AK activity)” value (K. pneumoniae; [10]) was 0.8, the “AK-based Prestwick Library Screening Results, P. aeruginosa (fold increase in extracellular AK activity)” value (P. aeruginosa; [10]) was 1.1 and the “AK-based Prestwick Library Screening Results, A. baumannii (fold increase in extracellular AK activity)” value [1, 10] was 0.9. For the same compound, the “AK-based Prestwick Library Screening Results, E. coli (fold increase in extracellular AK activity)” value (E. coli; [10]) was 1.1, the “AK-based Prestwick Library Screening Results, E. cloacae (fold increase in extracellular AK activity)” value (E. cloacae; [10]) was 1.5 and the “AK-based Prestwick Library Screening Results, E. faecium (fold increase in extracellular AK activity)” value (E. faecium; [10]) was 1.0. The “AK-based Prestwick Library Screening Results, S. aureus (fold increase in extracellular AK activity)” value [2, 10] was 0.9.

For `C[N+]1(CCCCC[N+]2(C)CCCC2)CCCC1.O=C([O-])C(O)C(O)C(=O)O.O=C([O-])C(O)C(O)C(=O)O` [Pentolinium bitartrate], the “AK-based Prestwick Library Screening Results, K. pneumoniae (increase in extracellular AK activity)” value (K. pneumoniae; [11]) was 0.7, the “AK-based Prestwick Library Screening Results, P. aeruginosa (increase in extracellular AK activity)” value (P. aeruginosa; [11]) was 1.0 and the “AK-based Prestwick Library Screening Results, A. baumannii (increase in extracellular AK activity)” value [1, 11] was 1.0. For the same compound, the “AK-based Prestwick Library Screening Results, E. coli (increase in extracellular AK activity)” value (E. coli; [11]) was 0.8, the “AK-based Prestwick Library Screening Results, E. cloacae (increase in extracellular AK activity)” value (E. cloacae; [11]) was 1.1 and the “AK-based Prestwick Library Screening Results, E. faecium (increase in extracellular AK activity)” value (E. faecium; [11]) was 0.9. For the same compound, the “AK-based Prestwick Library Screening Results, S. aureus (increase in extracellular AK activity)” value [2, 11] was 0.7.
